Values of other authors, collected in paper PMC12287436 (Scientific Reports, 2025).
Structures can show the parent of a compound that is named as a salt.

Conditions: rabbits; 2% instillation dose

Retinal concentration: 2.8 µM
Structure (SMILES): CCN[C@H]1C[C@H](C)S(=O)(=O)c2sc(S(N)(=O)=O)cc21 [dorzolamide hydrochloride]
